Test results reported in PubChem BioAssay AID248 (DTP/NCI, 2004).
Where “and” joins values, the source holds several entries; their conditions need not be identical. Equal values may be shown once. Inconclusive results and toxic doses are left out. No stated cut-off is given here; in the data, active means T/C of 150% or more; inactive means T/C below 125%.

System: L1210 leukemia ip in BDF1 mice, survival T/C
Experiment: NCI In Vivo Anticancer Drug Screen. Data for tumor model L1210 Leukemia (intraperitoneal) in B6D2F1 (BDF1) mice
Details: endpoint: mean survival time, higher = longer survival
Method in brief: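 Transplantable tumor model; survival measured in treated vs vehicle control mice. Value = treated/control.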

[1] = dose: 100.0 mg/kg/injection, schedule: Q01DX001 (ip), vehicle: saline
[2] = dose: 200.0 mg/kg/injection, schedule: Q01DX001 (ip), vehicle: saline
[3] = dose: 400.0 mg/kg/injection, schedule: Q01DX001 (ip), vehicle: saline
[4] = dose: 100.0 mg/kg/injection, schedule: Q01DX009 (ip), vehicle: saline with Tween-80
[5] = dose: 100.0 mg/kg/injection, schedule: Q04DX003 (ip), vehicle: saline with Tween-80
[6] = dose: 200.0 mg/kg/injection, schedule: Q01DX009 (ip), vehicle: saline with Tween-80
[7] = dose: 200.0 mg/kg/injection, schedule: Q04DX003 (ip), vehicle: saline with Tween-80
[8] = dose: 400.0 mg/kg/injection, schedule: Q01DX009 (ip), vehicle: saline with Tween-80
[9] = dose: 400.0 mg/kg/injection, schedule: Q04DX003 (ip), vehicle: saline with Tween-80
[10] = dose: 100.0 mg/kg/injection, schedule: Q04DX003 (ip), vehicle: saline
[11] = dose: 200.0 mg/kg/injection, schedule: Q04DX003 (ip), vehicle: saline
[12] = dose: 100.0 mg/kg/injection, schedule: Q01DX009 (ip), vehicle: Klucel (hydroxypropylcellulose) (HPC)
[13] = dose: 200.0 mg/kg/injection, schedule: Q01DX009 (ip), vehicle: Klucel (hydroxypropylcellulose) (HPC)
[14] = dose: 400.0 mg/kg/injection, schedule: Q01DX009 (ip), vehicle: Klucel (hydroxypropylcellulose) (HPC)
[15] = dose: 200.0 mg/kg/injection, schedule: Q01DX001 (ip), vehicle: Klucel (hydroxypropylcellulose) (HPC)
[16] = dose: 100.0 mg/kg/injection, schedule: Q04DX002 (ip), vehicle: Klucel (hydroxypropylcellulose) (HPC)
[17] = dose: 200.0 mg/kg/injection, schedule: Q04DX002 (ip), vehicle: Klucel (hydroxypropylcellulose) (HPC)
[18] = dose: 400.0 mg/kg/injection, schedule: Q04DX002 (ip), vehicle: Klucel (hydroxypropylcellulose) (HPC)

Measured: T/C

COC(=O)C1(C)COP(=O)(O)OC1 (stereo not drawn) (tested in a mixture with another compound)
inactive: [1] 91 % of control and 107 % of control and 100 % of control | [2] 94 % of control and 96 % of control and 97 % of control | [3] 89 % of control and 105 % of control and 107 % of control

O[C@@H]1CCCC[C@@H]1n1cnc2c(=S)nc[nH]c21
inactive: [4] 97 % of control | [5] 98 % of control | [6] 93 % of control | [7] 93 % of control | [8] 92 % of control | [9] 91 % of control

CC1(N)CC2CCC1C2 (stereo not drawn)
inactive: [10] 96 % of control | [11] 92 % of control

N#Cc1c(-c2ccc(Cl)cc2)n(O)c2ccccc12
inactive: [1] 96 % of control | [2] 100 % of control | [3] 96 % of control

CC(=O)Oc1cccc2c1C(=O)c1ccccc1C2=O
inactive: dose: 100.0 mg/kg/injection, schedule: Q01DX009 (ip), vehicle: saline 103 % of control | [10] 103 % of control | dose: 200.0 mg/kg/injection, schedule: Q01DX009 (ip), vehicle: saline 103 % of control | [11] 97 % of control | dose: 400.0 mg/kg/injection, schedule: Q01DX009 (ip), vehicle: saline 104 % of control | dose: 400.0 mg/kg/injection, schedule: Q04DX003 (ip), vehicle: saline 103 % of control

O=C(NCCF)NC1C(O)OC(CO)C(O)C1O (stereo not drawn)
inactive: [1] 102 % of control | [2] 101 % of control | [3] 98 % of control

C=CCNC(=S)Nc1ccc(OC(=O)NC2CCCCC2)cc1
inactive: [4] 110 % of control | [5] 110 % of control | [6] 106 % of control | [7] 113 % of control | [8] 102 % of control | [9] 98 % of control

Cc1ccc(NC(=O)N(C)N)cc1
inactive: dose: 75.0 mg/kg/injection, schedule: Q01DX001 (ip), vehicle: carboxymethylcellulose (CMC) 102 % of control | dose: 150.0 mg/kg/injection, schedule: Q01DX001 (ip), vehicle: carboxymethylcellulose (CMC) 104 % of control

C=C(Cl)CN(C)CC(=C)Cl
inactive: [1] 102 % of control

O=C1C=C(c2ccccc2)C(c2ccccc2)=C1
inactive: dose: 50.0 mg/kg/injection, schedule: Q01DX001 (ip), vehicle: carboxymethylcellulose (CMC) 101 % of control | dose: 100.0 mg/kg/injection, schedule: Q01DX001 (ip), vehicle: carboxymethylcellulose (CMC) 95 % of control | dose: 200.0 mg/kg/injection, schedule: Q01DX001 (ip), vehicle: carboxymethylcellulose (CMC) 92 % of control | dose: 400.0 mg/kg/injection, schedule: Q01DX001 (ip), vehicle: carboxymethylcellulose (CMC) 103 % of control

Cc1ccc(Nc2ccc(Nc3ccc(CCO)cc3)c3c2C(=O)c2ccccc2C3=O)cc1
inactive: [12] 96 % of control | [13] 100 % of control | [14] 89 % of control

CC1(C)OC2OC(COC(=O)c3ccccc3)C(OC(=O)Nc3ccccc3)C2O1 (stereo not drawn)
inactive: [5] 93 % of control | [7] 98 % of control | [9] 97 % of control

CNC(=O)Nc1nnnc2ccccc12
inactive: dose: 25.0 mg/kg/injection, schedule: Q04DX003 (ip), vehicle: saline with Tween-80 92 % of control | dose: 50.0 mg/kg/injection, schedule: Q04DX003 (ip), vehicle: saline with Tween-80 94 % of control | [5] 89 % of control

COc1ccc2c3c(c4cc(OC)c(OC)cc4c2c1)C[C@H]1CCCCN1C3
inactive: dose: 0.06 mg/kg/injection, schedule: Q01DX Z (ip), vehicle: carboxymethylcellulose (CMC) 103 % of control | dose: 0.12 mg/kg/injection, schedule: Q01DX Z (ip), vehicle: carboxymethylcellulose (CMC) 108 % of control | dose: 0.25 mg/kg/injection, schedule: Q01DX Z (ip), vehicle: carboxymethylcellulose (CMC) 105 % of control | dose: 0.25 mg/kg/injection, schedule: Q01DX Z (ip), vehicle: other 116 % of control | dose: 0.5 mg/kg/injection, schedule: Q01DX Z (ip), vehicle: carboxymethylcellulose (CMC) 114 % of control and 124 % of control | dose: 0.5 mg/kg/injection, schedule: Q01DX Z (ip), vehicle: other 123 % of control | dose: 0.5 mg/kg/injection, schedule: Q01DX Z (ip), vehicle: saline 115 % of control | dose: 1.0 mg/kg/injection, schedule: Q01DX001 (ip), vehicle: saline 105 % of control | dose: 1.0 mg/kg/injection, schedule: Q01DX Z (ip), vehicle: carboxymethylcellulose (CMC) 122 % of control | dose: 1.0 mg/kg/injection, schedule: Q01DX Z (ip), vehicle: saline 115 % of control | dose: 2.0 mg/kg/injection, schedule: Q01DX001 (ip), vehicle: saline 105 % of control | dose: 2.0 mg/kg/injection, schedule: Q01DX Z (ip), vehicle: other 88 % of control | dose: 4.0 mg/kg/injection, schedule: Q01DX001 (ip), vehicle: saline 111 % of control

CC1CCCCC1C(=O)N1CCCCCC1 (stereo not drawn)
inactive: dose: 100.0 mg/kg/injection, schedule: Q04DX002 (ip), vehicle: saline 108 % of control | dose: 200.0 mg/kg/injection, schedule: Q04DX002 (ip), vehicle: saline 99 % of control | dose: 400.0 mg/kg/injection, schedule: Q04DX002 (ip), vehicle: saline 108 % of control

CC1(C)N=C(N)N=C(N)N1c1cccc(OCCCOc2ccccc2)c1
inactive: [15] 102 % of control

[O-]c1on[n+](C2CCCCC2)c1-c1ccccc1
inactive: [5] 95 % of control | [7] 91 % of control | [9] 101 % of control

O=C(Cc1cccc2ccccc12)N/N=C/c1cccc([N+](=O)[O-])c1
inactive: [12] 88 % of control | [16] 93 % of control | [13] 93 % of control | [17] 89 % of control | [18] 96 % of control

O=C(Nc1ccccc1C(F)(F)F)OCCN1CCNC1=S
inactive: dose: 100.0 mg/kg/injection, schedule: Q01DX001 (ip), vehicle: Klucel (hydroxypropylcellulose) (HPC) 106 % of control | [12] 96 % of control and 103 % of control | [16] 94 % of control and 96 % of control | dose: 100.0 mg/kg/injection, schedule: Q04DX003 (ip), vehicle: Klucel (hydroxypropylcellulose) (HPC) 101 % of control | [15] 103 % of control | [13] 98 % of control and 100 % of control | [17] 95 % of control and 111 % of control | dose: 200.0 mg/kg/injection, schedule: Q04DX003 (ip), vehicle: Klucel (hydroxypropylcellulose) (HPC) 106 % of control | dose: 400.0 mg/kg/injection, schedule: Q01DX001 (ip), vehicle: Klucel (hydroxypropylcellulose) (HPC) 104 % of control | [14] 95 % of control and 100 % of control | [18] 94 % of control and 104 % of control | dose: 400.0 mg/kg/injection, schedule: Q04DX003 (ip), vehicle: Klucel (hydroxypropylcellulose) (HPC) 89 % of control

CCCCC[C@H](O)/C=C/[C@@H]1[C@@H](C/C=C\CCCC(=O)O)[C@@H](O)C[C@H]1O
inactive: dose: 0.25 mg/kg/injection, schedule: Q#A X020 (ip), vehicle: saline 98 % of control | dose: 0.5 mg/kg/injection, schedule: Q#A X020 (ip), vehicle: saline 96 % of control | dose: 1.0 mg/kg/injection, schedule: Q#A X020 (ip), vehicle: saline 101 % of control | dose: 2.0 mg/kg/injection, schedule: Q#A X020 (ip), vehicle: saline 104 % of control | dose: 5.0 mg/kg/injection, schedule: Q04DX002 (ip), vehicle: saline 96 % of control | dose: 10.0 mg/kg/injection, schedule: Q04DX002 (ip), vehicle: saline 96 % of control | dose: 20.0 mg/kg/injection, schedule: Q04DX002 (ip), vehicle: saline 88 % of control

C[C@@H]1O[C@@H](O[C@H]2CC[C@]3(C=O)[C@H]4CC[C@]5(C)[C@@H](c6ccc(=O)oc6)CC[C@]5(O)[C@@H]4CC[C@]3(O)C2)[C@H](O)[C@H](O)[C@H]1O[C@@H]1O[C@H](CO)[C@@H](O)[C@H](O)[C@H]1O
inactive: dose: 5.0 mg/kg/injection, schedule: Q01DX001 (ip), vehicle: carboxymethylcellulose (CMC) 100 % of control | dose: 10.0 mg/kg/injection, schedule: Q01DX001 (ip), vehicle: carboxymethylcellulose (CMC) 94 % of control

OC1C2C3CCC(C3)C2C(O)C2C3CCC(C3)C12 (stereo not drawn)
inactive: dose: 12.5 mg/kg/injection, schedule: Q01DX009 (ip), vehicle: saline with Tween-80 101 % of control | dose: 25.0 mg/kg/injection, schedule: Q01DX009 (ip), vehicle: saline with Tween-80 101 % of control
